In PubChem BioAssay (NCI):
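1) Cells in 96-well plates. 2) Compound, 48 h, 5 concentrations. 3) Linear interpolation between surrounding doses. 4) Unreached endpoint = highest concentration. GI50 marks 50% less growth. TGI: concentration producing complete growth inhibition.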

Assays:
Experiment in all cases: NCI tumour cell line growth inhibition, 48 h
[1] = test system: DU-145 prostate
[2] = test system: PC-3 prostate
[3] = test system: NCI-H522 lung
[4] = test system: RPMI-8226 leukemia
[5] = test system: HCT-116 colon
[6] = test system: ACHN renal
[7] = test system: A498 renal
[8] = test system: SNB-19 CNS
[9] = test system: UACC-257 melanoma
[10] = test system: HL-60(TB) leukemia

SMILES | GI50 [1] | TGI [1] | GI50 [2] | TGI [2] | GI50 [3] | TGI [3] | GI50 [4] | TGI [4] | GI50 [5] | TGI [5] | GI50 [6] | TGI [6] | GI50 [7] | TGI [7] | GI50 [8] | TGI [8] | GI50 [9] | TGI [9] | GI50 [10] | TGI [10]
O=C1c2c(c3c4ccccc4[nH]c3c3ccc4ccccc4c23)C(=O)N1CCN1CCNCC1 | 1.73 µM | 3.25 µM | 1.68 µM | 3.67 µM | 1.75 µM | 3.61 µM | 1.81 µM | 4.1 µM | 1.59 µM | 3.06 µM | 1.56 µM | 2.9 µM | 4.19 µM | 19.6 µM | 1.6 µM | 2.99 µM | 1.87 µM | 3.82 µM | 1.61 µM | 3.5 µM
c1cnn2ncc(-c3ccnc(NCCCN4CCOCC4)n3)c2c1 | 7.72 µM | > 25 µM | 8.71 µM | > 25 µM | 10.6 µM | > 25 µM | 6.7 µM | > 25 µM | 7.25 µM | > 25 µM | 6.08 µM | > 25 µM | 4.18 µM | 12.2 µM | 8.35 µM | > 25 µM | 6.68 µM | > 22.1 µM | 6.08 µM | 17.7 µM
O=C1/C(=C/c2ccccc2[N+](=O)[O-])Cc2ccccc21 | 1.86 µM | 3.51 µM | 1.83 µM | 5.33 µM | 1.7 µM | 3.13 µM | 2.44 µM | 7.84 µM | 1.23 µM | 2.57 µM | 1.87 µM | 4.87 µM | 2.17 µM | 5.36 µM | 10.6 µM | 41.2 µM | 1.83 µM | 4.35 µM | 2.85 µM | 7.12 µM
NC(=O)c1csc(C2OC(CO)C(O)C2O)n1 (stereo not given) | – | > 10000 µM | 29.5 µM | 2560 µM | 42.7 µM | 678 µM | > 20.1 µM | 8150 µM | – | 6870 µM | 54.5 µM | > 10000 µM | – | > 9690 µM | 65.7 µM | 7290 µM | – | > 10000 µM | 36.5 µM | 3330 µM
O=S(=O)(c1ccc(Cl)cc1)C(Cl)(Cl)Cl | 2.09 µM | 10 µM | 4.73 µM | > 62.5 µM | 2.95 µM | 21 µM | 3.35 µM | > 52.9 µM | 2.43 µM | 11.3 µM | 1.43 µM | > 100 µM | 1.15 µM | 13 µM | 15.2 µM | > 78.1 µM | 2.1 µM | 11.8 µM | 1.8 µM | 7.7 µM
CN1CCN(C(=O)c2cc(-c3ccc4ncnc(N5CCc6cc(F)c(Cl)cc65)c4c3)cnc2N)CC1 | 0.214 µM | 11.3 µM | 0.176 µM | 3.78 µM | 0.346 µM | 3.22 µM | 0.124 µM | 0.557 µM | 0.237 µM | 2.89 µM | 0.27 µM | 5.78 µM | 0.104 µM | 0.361 µM | 0.413 µM | 10.5 µM | 0.334 µM | 3.52 µM | 0.0535 µM | 0.409 µM
O=c1[nH]c(=O)n(C2CC(O)C(COP(=O)(OCc3ccc([N+](=O)[O-])o3)N(CCCCCl)CC(O)CO)O2)cc1F (stereo not given) | 0.176 µM | > 34.8 µM | 0.154 µM | > 100 µM | 0.985 µM | 77.4 µM | < 0.01 µM | > 49.8 µM | 0.999 µM | > 100 µM | < 0.0216 µM | 12.6 µM | 0.138 µM | 39.1 µM | > 20.3 µM | > 100 µM | 0.0213 µM | 0.852 µM | 0.0262 µM | > 100 µM
COc1ccc2c(c1)N(CCO)C1=C(C(=O)OC1)C2c1cccc(F)c1 (stereo not given) | 1.24 µM | > 38.6 µM | 0.232 µM | > 50 µM | 0.118 µM | 1.08 µM | 0.629 µM | > 50 µM | 0.406 µM | > 50 µM | 0.386 µM | > 50 µM | 0.157 µM | 2.12 µM | 0.288 µM | > 50 µM | > 50 µM | > 50 µM | 0.161 µM | 0.781 µM
O=C1OC(=O)C(=C\c2ccc3c(c2)OCO3)/C1=C/c1ccc2c(c1)OCO2 | – | > 100 µM | – | > 100 µM | – | > 100 µM | – | 97.2 µM | – | > 100 µM | – | > 100 µM | – | > 100 µM | – | > 100 µM | – | > 100 µM | – | > 88.1 µM
N#Cc1c(N2CCOCC2)nc(=S)[nH]c1-c1ccco1 | 10.2 µM | > 100 µM | 0.19 µM | 3.17 µM | 3.95 µM | > 100 µM | 1.58 µM | 16.4 µM | 15.6 µM | > 100 µM | 5.75 µM | > 100 µM | 1.19 µM | 7.23 µM | 26 µM | > 100 µM | 22.4 µM | > 100 µM | 4.26 µM | > 100 µM
O=C(O)CN1CCN(CC(=O)O)CC(=O)[O][Hg][O]C(=O)C1 | 27.8 µM | > 61.9 µM | 16.5 µM | 30.5 µM | 6.75 µM | > 47.6 µM | 18.2 µM | 50.5 µM | 17.9 µM | 33.7 µM | 19.6 µM | 34.2 µM | > 100 µM | > 100 µM | 29.8 µM | > 100 µM | 15.4 µM | 28.7 µM | 13.7 µM | 34.7 µM
OCC1OC(n2cnc3c(N/N=C\c4ccccn4)ncnc32)C(O)C1O (stereo not given) | 0.0389 µM | 10.1 µM | 0.361 µM | > 33.6 µM | 0.182 µM | > 100 µM | 0.736 µM | > 25.3 µM | 0.11 µM | 10.8 µM | 0.2 µM | 1.78 µM | 0.762 µM | > 100 µM | 0.364 µM | > 100 µM | 1.24 µM | 8.68 µM | 0.0247 µM | 0.204 µM
O=C1c2ccccc2-c2cc([N+](=O)[O-])c([N+](=O)[O-])cc21 | – | 3.28 µM | – | 2.93 µM | – | 2.99 µM | – | 6.23 µM | – | 6.23 µM | – | 3.07 µM | – | 33.1 µM | – | 3.36 µM | – | 2.74 µM | – | 3.97 µM
C/C(=C\c1ccc2ccccc2c1)[N+](=O)[O-] | 1.91 µM | 3.54 µM | 1.89 µM | 3.89 µM | 1.58 µM | 3 µM | 1.57 µM | 4.39 µM | 2.19 µM | 5.58 µM | 1.79 µM | 3.34 µM | 8.63 µM | 20.9 µM | 6.15 µM | 19.7 µM | 1.56 µM | 2.9 µM | 2.03 µM | 5.49 µM
COc1cc(N2C(=O)[C@H](O)C2c2ccc(SC)cc2)cc(OC)c1OC (stereo not given in full) | 0.0238 µM | > 100 µM | < 0.01 µM | > 100 µM | < 0.01 µM | – | < 0.01 µM | 14.6 µM | < 0.01 µM | > 100 µM | < 0.01 µM | 60.5 µM | < 0.01 µM | 0.0882 µM | < 0.01 µM | > 100 µM | 14.6 µM | > 100 µM | 0.0106 µM | 0.0448 µM
CN1C(=O)N(C)C2C1NN=c1s/c(=C\c3ccc(C(F)(F)F)cc3)c(=O)n12 (stereo not given) | 2.96 µM | > 100 µM | 0.677 µM | > 100 µM | 0.355 µM | 2.25 µM | 1.65 µM | > 100 µM | 1.55 µM | > 100 µM | 2.08 µM | 38.5 µM | 2 µM | 34.6 µM | 2.62 µM | > 100 µM | 14.5 µM | > 100 µM | 0.413 µM | 18.6 µM
CN(C)CCCn1c(=O)c2ccccc2c2ccccc21 | 18.5 µM | 52 µM | 18.2 µM | 54.2 µM | 12.5 µM | 30.6 µM | 26.9 µM | 77.7 µM | 4.74 µM | > 100 µM | 4.84 µM | > 100 µM | 15.7 µM | 30.6 µM | 23.3 µM | > 100 µM | 12.6 µM | 26.6 µM | 21.8 µM | 69.5 µM
OCc1ccc(N2CCCC2c2ccccc2)cc1Cl (stereo not given) | 12.3 µM | 30.8 µM | 8.41 µM | 29 µM | 5.18 µM | 18.6 µM | 4.36 µM | 23.6 µM | 0.744 µM | 10.6 µM | 11.7 µM | 26.9 µM | 0.136 µM | 0.306 µM | 13.5 µM | > 84 µM | 0.544 µM | 2.11 µM | 3.07 µM | 11.1 µM
Fc1ccc(/C=N/n2c(-c3ccc(F)c(Cl)c3)nn(CNc3ccccc3C(F)(F)F)c2=S)cc1 | > 100 µM | > 100 µM | 37.4 µM | > 100 µM | 24.4 µM | 76.3 µM | 38.6 µM | > 100 µM | 55.4 µM | > 100 µM | 81.1 µM | > 100 µM | 12.5 µM | 63.7 µM | > 100 µM | > 100 µM | 42.5 µM | > 100 µM | 39.4 µM | > 100 µM
COc1ccc(-c2[nH]c3ccccc3c2-c2ccc(OC)cc2)cc1 | 3.58 µM | 11.4 µM | 4.07 µM | 25.3 µM | 12 µM | 40.7 µM | 3.27 µM | 69.5 µM | 3.93 µM | 14.6 µM | 11.9 µM | 28.3 µM | 4 µM | 12.8 µM | 5.06 µM | 20.6 µM | 7.22 µM | 23.2 µM | 2.03 µM | 6.03 µM
O=C(/C=C/c1ccccc1)CCN1CCOCC1 | – | 40.4 µM | – | 31.5 µM | – | 8.13 µM | – | 7.54 µM | – | 28 µM | – | 28.6 µM | – | 44 µM | – | 39.9 µM | – | 21.3 µM | – | 16.4 µM
